Like-named read-outs stand apart in the source and are kept apart here.
Columns and labels:
[1] = Solubility assay in water, 0.1% hydrochloric acid and methanol; type: physicochemical
Procedure: The solubility was characterized by:
The term “very soluble” refers to that 1 g (mL) of solute can be dissolved in less than 1 mL of solvent;
The term “freely soluble” refers to that 1 g (mL) of solute can be dissolved in from 1 mL to 10 mL, not including 10 mL of solvent;
The term “soluble” refers to that 1 g (mL) of solute can be dissolved in from 10 mL to 30 mL, not including 30 mL of solvent;
The term “sparingly soluble” refers to that 1g (mL) of solute can be dissolved in from 30 mL to 100 mL, not including 100 mL of solvent;
The term “slightly soluble” refers to that 1g (mL) of solute can be dissolved in from 100 mL to 1000 mL, not including 1000 mL of solvent;
The term “very slightly soluble” refers to that 1g (mL) of solute can be dissolved in from 1000 mL to 10000 mL, not including 10000 mL of solvent;
The term “practically insoluble or insoluble” refers to that 1g (mL) of solute cannot be dissolved completely in 10000 mL of solvent.

[2] = molecular target: T1, human TPOR (Homo sapiens, UniProt P40238); assay: Proliferation effect on BAF3-TPOR cell (CCK-8); type: cell-based; conditions: rate relative to rhTPO positive control
T1 construct: host or cells: BaF3 (murine pro-B cells), stably transfected, G418-selected
T1 sequence (P40238 26-635): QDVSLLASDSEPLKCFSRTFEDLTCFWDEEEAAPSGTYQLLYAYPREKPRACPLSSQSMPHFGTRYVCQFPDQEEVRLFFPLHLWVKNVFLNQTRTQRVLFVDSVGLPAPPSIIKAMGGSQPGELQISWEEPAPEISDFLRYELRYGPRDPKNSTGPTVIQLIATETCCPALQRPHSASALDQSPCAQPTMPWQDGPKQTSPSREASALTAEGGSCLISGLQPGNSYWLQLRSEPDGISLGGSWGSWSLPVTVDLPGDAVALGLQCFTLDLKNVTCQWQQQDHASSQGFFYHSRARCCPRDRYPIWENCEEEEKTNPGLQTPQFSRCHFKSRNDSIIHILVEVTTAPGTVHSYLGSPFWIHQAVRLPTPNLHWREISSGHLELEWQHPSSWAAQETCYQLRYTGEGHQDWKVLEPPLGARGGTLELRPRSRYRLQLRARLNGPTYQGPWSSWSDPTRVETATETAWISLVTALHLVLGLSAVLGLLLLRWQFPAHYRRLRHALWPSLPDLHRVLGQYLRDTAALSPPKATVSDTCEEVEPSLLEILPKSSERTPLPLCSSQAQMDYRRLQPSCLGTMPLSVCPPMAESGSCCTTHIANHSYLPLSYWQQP
Procedure: (1) Plasmid constructs: based on the TPO receptor (TPOR) sequence information from Entrez (Gene ID: 4325, Refseq: NM_005373), dual-site mutation was performed on EX-B0010-M02 plasmid by using QuikChange® Multi Site Directed Mutagenesis Kit (Stratagene). The sequence of primers containing multi-sites mutation was designed as follows: […]
The E. coli DH5α competent cells were transformed with mutated plasmid, and positive colonies were picked up through ampicillin selection. The mutation result was confirmed by sequence analysis.
(2) BAF3-TPOR stable transfected cell line: the following method was used to construct the BaF3 cell which stably over-expressed functional human TPOR. The successfully mutated EX-B0010-M02 plasmid ([…]) which expressed human TPOR and screening gene neomycin was transfected into wild-type BaF3 cells (1×10^7) by electroporation at 250V for 18 ms using an electric pulse generator (Electro Square Porator ECM830, BTX Division of Genetronic, Inc. US). The stable transfected cells BAF3-TPOR were selected with G418 (Gibco, US), then incubated in RPMI1640 medium plus 10% FBS (Gibco, US), […] G418, 5 ng/mL, rmIL-3 (Chemicon, US).
(1) Washing cells by centrifugation: a suitable amount of cell suspension was centrifuged at 1000 rpm for 5 minutes, and the supernatant was discarded. 10 mL of cell culture media without IL-3 was added. Then the resulting cell suspension was centrifuged at 1000 rpm for 5 minutes, and the supernatant was discarded.
(2) 1 mL of cell culture media without IL-3 was added to beat upon them to equality, and the number of a suitable amount of cell suspension was counted after dilution.
(3) According to the result of the cell counting, a cell suspension in a concentration of 100,000 cell/mL was prepared.
(4) 100 μL of cell suspension was transferred to each well of 96-well culture plate, and there were 3 parallel wells, that is, there were a blank control group (B), a negative control group (N), a positive control group of TPO (P) and a test compound group (S).
(5) The test compound was dissolved in DMSO to prepare a 10 mM stock solution, and then the solution was diluted with RPMI 1640 medium into a series of test samples at different concentration: 30 μM, 10 μM, 3 μM, 1 μM, 0.3 μM, 0.1 μM, 0.03 μM, 0.01 μM, 0.003 μM, 0.001 μM.
(6) 10 μL of test compound solution was transferred to each well respectively; 1 μL of rhTPO (10 ng/mL) was added to positive control well.
(7) The plates were incubated in an incubator at 5% CO2 and 37° C. for 24 hours.
(8) After incubation, 10 μL of CCK-8 solution was added to each well and the plates were incubated in the incubator for another 24 hours.
(9) OD value was detected at 450 nm by VICTORS (Perkin Elmer 1420-120) plate reader.
(1) The proliferation rate was calculated as follows: Rate=[(S−B)/(P−B)]*100%
S: OD value of wells which contain test compound.
B: OD value of blank control wells
P: OD value of positive control wells
(2) The EC50 value was calculated by Origin 7.0 software.

[3] = Pharmacokinetics assay in rats; type: in vivo, SD rats; conditions: SD rats, intragastric, 50 mg/Kg (as free acid); for Vd/F / AUC / half-life / MRT / Cmax / Tmax / CL/F: both sexes, rat, po; for Vd/F: read-out: Apparent Distribution Volume Vz/F; for AUC: read-out: Area Under Curve AUC; for half-life: read-out: Half-Life t½ (converted); for MRT: read-out: Mean Residence Time MRT; for Cmax: read-out: Plasma Conc. Cmax; for Tmax: read-out: Time to peak Tmax; for CL/F: read-out: Clearance CL/F (converted)
Procedure: The compounds of the present disclosure were administrated intragastrically to rats to determine the drug concentration in plasma at different time points by HPLC-UV. The pharmacokinetic behavior of the compounds of the present disclosure was studied and evaluated in rats. […] Healthy adult SD rats, male and female in half, were purchased from SINO-BRITSH SIPPR/BK LAB.ANIMAL LTD., Colo., License number: SCXK (Shanghai) 2003-0002 The test compound was diluted with 1% sodium carboxymethyl cellulose to 5 mg/mL (calculated as the free acid form) of suspension before use. Healthy adult SD rats, male and female in half, were divided into 23 groups. […] The plasma samples were stored at −20° C. until analysis. The rats were fed 2 hours after administration. […] Then the mixture was mixed for 3 minute using a vortexer and centrifuged for 10 minutes at 13,500 rpm. 40 μL of the supernatant was analyzed by HPLC-UV. The compartmental model of pharmacokinetics was fitted for the test compounds and the major pharmacokinetic parameters were calculated in which Cmax and tmax were the actually measured values.

[4] = 0.1% hydrochloric acid, simulated gastric fluid, 0.1% hydrochloric acid, read-out: solubility
[5] = methanol, organic solvent or mixture, methanol, read-out: solubility

Row | solubility ([1]; water, read-out: solubility) | CL/F ([3]; SD, plasma, 50 mg/kg) | SMILES | solubility [1, 4] | solubility ([1]; methanol) | solubility ([1]; water) | EC50 [2] | Area Under Curve AUC ([3]; 50 mg/kg) | Clearance CL/F ([3]; 50 mg/kg) | Half-Life t½ ([3]; 50 mg/kg) | Mean Residence Time MRT ([3]; 50 mg/kg) | Plasma Conc. Cmax ([3]; 50 mg/kg) | Time to peak Tmax ([3]; 50 mg/kg) | solubility [1, 5] | Vd/F ([3]; SD, plasma, 50 mg/kg) | AUC ([3]; SD, plasma, 50 mg/kg) | half-life ([3]; SD, plasma, 50 mg/kg) | MRT ([3]; SD, plasma, 50 mg/kg) | Cmax ([3]; SD, plasma, 50 mg/kg) | Tmax ([3]; SD, plasma, 50 mg/kg) | CL/F ([3]; in vivo)
1 | – | – | CC1=NN(c2ccc3c(c2)CCC3)C(=O)/C1=N\Nc1cccc(-c2cccc(C(=O)O)c2)c1O [Example 1j, (Z)-2′-hydroxy-3′-[N′-(1-indan-5-yl-3-methyl-5-carbonyl-1,5-dihydro-pyrazol-4-ylidene)-hydrazino]-biphenyl-3-carboxylic acid] | < 1 µg/mL | <1 µg/mL | <1 µg/mL | 200 nM | 131 ± 47 µg·h/mL | 0.049 ± 0.035 L/h/kg | 4.21 ± 1.86 h | 3.89 ± 1.78 h | 29.05 ± 11.44 µg/mL | 4.00 ± 1.41 h | – | – | – | – | – | – | – | –
2 | < 1 µg/mL | – | CC1=NN(c2ccc3c(c2)C(C)(C)CC3)C(=O)/C1=N\Nc1cccc(-c2ccc(C(=O)O)o2)c1O [Example 4h, (Z)-5-(3-{N′-[1-(3,3-dimethyl-indan-5-yl)-3-methyl-5-oxo-1,5-dihydro-pyrazol-4-ylidene]-hydrazino}-2-hydroxy-phenyl)-furan-2-carboxylic acid] | < 1 µg/mL | <1 µg/mL | – | 32 nM | 9.5 ± 8.3 µg·h/mL | 3.26 ± 1.93 L/h/kg | 19.8 ± 16.4 h | 31.7 ± 24.6 h | 1.29 ± 0.38 µg/mL | – | – | – | – | – | – | – | 2.5 ± 1 h | –
3 | – | – | CC1=NN(c2ccc3c(c2)CCC3)C(=O)/C1=N\Nc1cccc(-c2ccc(C(=O)O)o2)c1O [Example 16a, (Z)-5-{2-hydroxy-3-[N′-(1-indan-5-yl-3-methyl-5-oxo-1,5-dihydro-pyrazol-4-ylidene)-hydrazino]-phenyl}-furan-2-carboxylic acid] | < 1 µg/mL | <1 µg/mL | <1 µg/mL | 100 nM | 15.0 ± 17.2 µg·h/mL | 2.98 ± 2.75 L/h/kg | 1.82 ± 0.68 h | – | 6.81 ± 6.23 µg/mL | – | – | – | – | – | 4.03 ± 2.55 h | – | 2.75 ± 0.96 h | –
4 | 2900 µg/mL | 40.3 mL/min/kg | CC1=NN(c2ccc3c(c2)C(C)(C)CC3)C(=O)/C1=N\Nc1cccc(-c2ccc(C(=O)O)o2)c1O.NCCO.NCCO [Example 4, (Z)-5-(3-{N′-[1-(3,3-dimethyl-indan-5-yl)-3-methyl-5-oxo-1,5-dihydro-pyrazol-4-ylidene]-hydrazino}-2-hydroxy-phenyl)-furan-2-carboxylic acid bis-(ethanolamine)] | 24 µg/mL | – | – | 25 nM | – | – | – | – | – | – | 19000 µg/mL | 58.1 ± 47.7 L/kg | 19000 ± 12600 ng·h/mL | 1620 ± 1890 min | 38.3 ± 36.5 h | 2320 ± 1800 ng/mL | 2.25 ± 2.47 h | –
5 | – | – | CC1=NN(c2ccc3c(c2)CCC3)C(=O)/C1=N\Nc1cccc(-c2csc(C(=O)O)c2)c1O [Example 19d, (Z)-4-{2-hydroxy-3-[N′-(1-indan-5-yl-3-methyl-5-oxo-1,5-dihydro-pyrazol-4-ylidene)-hydrazino]-phenyl}-thiophene-2-carboxylic acid] | < 1 µg/mL | <1 µg/mL | <1 µg/mL | 43 nM | 36.1 ± 36.4 µg·h/mL | 1.44 ± 0.83 L/h/kg | 1.84 ± 1.05 h | 3.01 ± 1.99 h | 7.91 ± 6.84 µg/mL | 2.50 ± 0.58 h | – | – | – | – | – | – | – | –

Row | SMILES | solubility ([1]; water, read-out: solubility) | CL/F ([3]; SD, plasma, 50 mg/kg) | solubility [1, 4] | solubility ([1]; methanol) | solubility ([1]; water) | EC50 [2] | Area Under Curve AUC ([3]; 50 mg/kg) | Clearance CL/F ([3]; 50 mg/kg) | Half-Life t½ ([3]; 50 mg/kg) | Mean Residence Time MRT ([3]; 50 mg/kg) | Plasma Conc. Cmax ([3]; 50 mg/kg) | Time to peak Tmax ([3]; 50 mg/kg) | solubility [1, 5] | Vd/F ([3]; SD, plasma, 50 mg/kg) | AUC ([3]; SD, plasma, 50 mg/kg) | half-life ([3]; SD, plasma, 50 mg/kg) | MRT ([3]; SD, plasma, 50 mg/kg) | Cmax ([3]; SD, plasma, 50 mg/kg) | Tmax ([3]; SD, plasma, 50 mg/kg) | CL/F ([3]; in vivo)
6 | CC1=NN(c2ccc3c(c2)CCCC3)C(=O)/C1=N\Nc1cccc(-c2ccc(C(=O)[O-])o2)c1[O-].[Na+].[Na+] [Example 14, (Z)-5-(2-hydroxy-3-{N′-[3-methyl-5-oxo-1-(5,6,7,8-tetrahydro-naphthalen-2-yl)-1,5-dihydro-pyrazol-4-ylidene]-hydrazino}-phenyl)-furan-2-carboxylic acid disodium salt] | 1880 µg/mL | – | < 1 µg/mL | – | – | 19 nM | – | – | – | – | – | – | 3720 µg/mL | 9.54 ± 8.03 L/kg | 132000 ± 189000 ng·h/mL | 283 ± 169 min | 7.2 ± 2.13 h | 17800 ± 22600 ng/mL | 5.25 ± 1.5 h | 40 mL/min/kg
